Experimental data published in the NIST ThermoML archive (doi:10.1016/j.tca.2016.05.001).
Several values for one entry are separate records, joined by “and”; a condition that tells them apart may be missing. Equal entries are not always repeated.

Columns and labels:
[1] = for Triple point temperature: DSC
[2] = Molar enthalpy of transition or fusion; settings: Crystal; DSC

c1cnc2c(c1)ccc1cccnc12 [1,10-phenanthroline]
[1]
Settings	vapor or sublimation pressure [kPa]
308.1 K, Crystal, Calculated from knudsen effusion weight loss	8.3e-07
313.1 K, Crystal, Calculated from knudsen effusion weight loss	1.76e-06
318.1 K, Crystal, Calculated from knudsen effusion weight loss	3.3e-06
320.9 K, Crystal, Calculated from knudsen effusion weight loss	4.6e-06
323.1 K, Crystal, Calculated from knudsen effusion weight loss	5.5e-06
325.8 K, Crystal, Calculated from knudsen effusion weight loss	8e-06
327.9 K, Crystal, Calculated from knudsen effusion weight loss	9.9e-06
330.9 K, Crystal, Calculated from knudsen effusion weight loss	1.53e-05
332.8 K, Crystal, Calculated from knudsen effusion weight loss	1.71e-05
335.7 K, Crystal, Calculated from knudsen effusion weight loss	2.6e-05
337.7 K, Crystal, Calculated from knudsen effusion weight loss	3e-05
340.6 K, Crystal, Calculated from knudsen effusion weight loss	4.2e-05
342.6 K, Crystal, Calculated from knudsen effusion weight loss	5.1e-05
345.5 K, Crystal, Calculated from knudsen effusion weight loss	7.7e-05
345.6 K, Crystal, Calculated from knudsen effusion weight loss	7.5e-05
347.5 K, Crystal, Calculated from knudsen effusion weight loss	9.2e-05
350.8 K, Crystal, Calculated from knudsen effusion weight loss	0.000131
352.7 K, Crystal, Calculated from knudsen effusion weight loss	0.000148
354.7 K, Crystal, Calculated from knudsen effusion weight loss	0.000194
357.7 K, Crystal, Calculated from knudsen effusion weight loss	0.00024
358.6 K, Crystal, Calculated from knudsen effusion weight loss	0.00025
360.5 K, Crystal, Calculated from knudsen effusion weight loss	0.0003
360.6 K, Crystal, Calculated from knudsen effusion weight loss	0.00033
361.8 K, Crystal, Calculated from knudsen effusion weight loss	0.00034
362.5 K, Crystal, Calculated from knudsen effusion weight loss	0.00038
363.4 K, Crystal, Calculated from knudsen effusion weight loss	0.0004
365 K, Crystal, Calculated from knudsen effusion weight loss	0.00046
366.3 K, Crystal, Calculated from knudsen effusion weight loss	0.00052
367.4 K, Crystal, Calculated from knudsen effusion weight loss	0.0006
367.6 K, Crystal, Calculated from knudsen effusion weight loss	0.00059
369.3 K, Crystal, Calculated from knudsen effusion weight loss	0.00069
370.9 K, Crystal, Calculated from knudsen effusion weight loss	0.0008
372.2 K, Crystal, Calculated from knudsen effusion weight loss	0.0009
374 K, Crystal, Calculated from knudsen effusion weight loss	0.00107
375.1 K, Crystal, Calculated from knudsen effusion weight loss	0.00119
377.2 K, Crystal, Calculated from knudsen effusion weight loss	0.0014
378.1 K, Crystal, Calculated from knudsen effusion weight loss	0.00154
380.1 K, Crystal, Calculated from knudsen effusion weight loss	0.00182
381 K, Crystal, Calculated from knudsen effusion weight loss	0.00199
382.8 K, Crystal, Calculated from knudsen effusion weight loss	0.00229
384.2 K, Crystal, Calculated from knudsen effusion weight loss	0.00264
385.6 K, Crystal, Calculated from knudsen effusion weight loss	0.00292
387.1 K, Crystal, Calculated from knudsen effusion weight loss	0.00335
393.2 K, Liquid, Rate of evaporation	0.0054
395.9 K, Liquid, Rate of evaporation	0.0061
398.6 K, Liquid, Rate of evaporation	0.0073
401.3 K, Liquid, Rate of evaporation	0.0084
404.1 K, Liquid, Rate of evaporation	0.0094
406.8 K, Liquid, Rate of evaporation	0.0113
409.5 K, Liquid, Rate of evaporation	0.0131
412.3 K, Liquid, Rate of evaporation	0.0147
415 K, Liquid, Rate of evaporation	0.0173
417.7 K, Liquid, Rate of evaporation	0.0206
420.5 K, Liquid, Rate of evaporation	0.024

Settings	Triple point temperature [K]
[1], Crystal	390.9

Settings	Molar enthalpy of transition or fusion [kcal/mol]
[2]	3.2

c1ccc2nc3ccccc3nc2c1 [phenazine]
[1]
Settings	vapor or sublimation pressure
291.8 K, Crystal, Calculated from knudsen effusion weight loss	9.4e-07 kPa
293.5 K, Crystal, Calculated from knudsen effusion weight loss	1.3e-06 kPa
296.3 K, Crystal, Calculated from knudsen effusion weight loss	1.6e-06 kPa
300.3 K, Crystal, Calculated from knudsen effusion weight loss	2.9e-06 kPa
303.5 K, Crystal, Calculated from knudsen effusion weight loss	4.7e-06 kPa
306.3 K, Crystal, Calculated from knudsen effusion weight loss	6.1e-06 kPa
310.3 K, Crystal, Calculated from knudsen effusion weight loss	1.1e-05 kPa
313.3 K, Crystal, Calculated from knudsen effusion weight loss	1.81e-05 kPa
316.2 K, Crystal, Calculated from knudsen effusion weight loss	2.24e-05 kPa and 2.6e-05 kPa
320.1 K, Crystal, Calculated from knudsen effusion weight loss	3.8e-05 kPa and 4.6e-05 kPa
323.1 K, Crystal, Calculated from knudsen effusion weight loss	6.6e-05 kPa
323.6 K, Crystal, Calculated from knudsen effusion weight loss	6.5e-05 kPa
326.1 K, Crystal, Calculated from knudsen effusion weight loss	8.9e-05 kPa
330 K, Crystal, Calculated from knudsen effusion weight loss	0.00015 kPa
332.9 K, Crystal, Calculated from knudsen effusion weight loss	0.000196 kPa
335.9 K, Crystal, Calculated from knudsen effusion weight loss	0.000264 kPa
339.8 K, Crystal, Calculated from knudsen effusion weight loss	0.0004 kPa
342.8 K, Crystal, Calculated from knudsen effusion weight loss	0.00056 kPa
450.3 K, Liquid, Rate of evaporation	2.018 kPa
451.4 K, Liquid, Rate of evaporation	2.101 kPa
452.5 K, Liquid, Rate of evaporation	2.186 kPa
454.8 K, Liquid, Rate of evaporation	2.441 kPa
456.7 K, Liquid, Rate of evaporation	2.618 kPa
458.9 K, Liquid, Rate of evaporation	2.836 kPa
460.1 K, Liquid, Rate of evaporation	3.041 kPa
462.6 K, Liquid, Rate of evaporation	3.328 kPa
464.2 K, Liquid, Rate of evaporation	3.533 kPa
466.7 K, Liquid, Rate of evaporation	3.944 kPa
469.1 K, Liquid, Rate of evaporation	4.316 kPa

Settings	Triple point temperature [K]
[1], Crystal	446.4

Settings	Molar enthalpy of transition or fusion [kcal/mol]
[2]	4.61

c1ccc2nc3ccccc3cc2c1 [acridine]
[1]
Settings	vapor or sublimation pressure
292.1 K, Crystal, Calculated from knudsen effusion weight loss	4e-06 kPa
293 K, Crystal, Calculated from knudsen effusion weight loss	4.7e-06 kPa
295.2 K, Crystal, Calculated from knudsen effusion weight loss	6.3e-06 kPa
296.1 K, Crystal, Calculated from knudsen effusion weight loss	6.7e-06 kPa
298.4 K, Crystal, Calculated from knudsen effusion weight loss	9.6e-06 kPa
300 K, Crystal, Calculated from knudsen effusion weight loss	1.2e-05 kPa
301.3 K, Crystal, Calculated from knudsen effusion weight loss	1.4e-05 kPa
303 K, Crystal, Calculated from knudsen effusion weight loss	1.8e-05 kPa
304.2 K, Crystal, Calculated from knudsen effusion weight loss	2e-05 kPa
305.9 K, Crystal, Calculated from knudsen effusion weight loss	2.6e-05 kPa
306.2 K, Crystal, Calculated from knudsen effusion weight loss	2.6e-05 kPa
308.1 K, Crystal, Calculated from knudsen effusion weight loss	3.3e-05 kPa
308.9 K, Crystal, Calculated from knudsen effusion weight loss	3.7e-05 kPa
311.1 K, Crystal, Calculated from knudsen effusion weight loss	4.7e-05 kPa
311.9 K, Crystal, Calculated from knudsen effusion weight loss	5.3e-05 kPa
314.1 K, Crystal, Calculated from knudsen effusion weight loss	6.8e-05 kPa
314.8 K, Crystal, Calculated from knudsen effusion weight loss	7.1e-05 kPa
315.8 K, Crystal, Calculated from knudsen effusion weight loss	8.4e-05 kPa
317 K, Crystal, Calculated from knudsen effusion weight loss	9.3e-05 kPa
317.8 K, Crystal, Calculated from knudsen effusion weight loss	9.8e-05 kPa
318.1 K, Crystal, Calculated from knudsen effusion weight loss	9.7e-05 kPa
318.8 K, Crystal, Calculated from knudsen effusion weight loss	0.000119 kPa
319.4 K, Crystal, Calculated from knudsen effusion weight loss	0.00011 kPa
320 K, Crystal, Calculated from knudsen effusion weight loss	0.000134 kPa
320.8 K, Crystal, Calculated from knudsen effusion weight loss	0.000138 kPa and 0.000148 kPa
321.1 K, Crystal, Calculated from knudsen effusion weight loss	0.00014 kPa
322.3 K, Crystal, Calculated from knudsen effusion weight loss	0.00015 kPa
322.9 K, Crystal, Calculated from knudsen effusion weight loss	0.000179 kPa
324 K, Crystal, Calculated from knudsen effusion weight loss	0.00019 kPa
325.1 K, Crystal, Calculated from knudsen effusion weight loss	0.00021 kPa
327 K, Crystal, Calculated from knudsen effusion weight loss	0.00027 kPa
328.1 K, Crystal, Calculated from knudsen effusion weight loss	0.0003 kPa
329.9 K, Crystal, Calculated from knudsen effusion weight loss	0.00036 kPa
331.1 K, Crystal, Calculated from knudsen effusion weight loss	0.0004 kPa
332.9 K, Crystal, Calculated from knudsen effusion weight loss	0.00048 kPa
334 K, Crystal, Calculated from knudsen effusion weight loss	0.00057 kPa
335.9 K, Crystal, Calculated from knudsen effusion weight loss	0.0007 kPa
337.1 K, Crystal, Calculated from knudsen effusion weight loss	0.00075 kPa
338.9 K, Crystal, Calculated from knudsen effusion weight loss	0.00091 kPa
340.2 K, Crystal, Calculated from knudsen effusion weight loss	0.00106 kPa
341.7 K, Crystal, Calculated from knudsen effusion weight loss	0.00122 kPa
343 K, Crystal, Calculated from knudsen effusion weight loss	0.00145 kPa
344.6 K, Crystal, Calculated from knudsen effusion weight loss	0.00162 kPa
346.1 K, Crystal, Calculated from knudsen effusion weight loss	0.0019 kPa
347.6 K, Crystal, Calculated from knudsen effusion weight loss	0.0022 kPa
348.8 K, Crystal, Calculated from knudsen effusion weight loss	0.0025 kPa
388.2 K, Liquid, Rate of evaporation	0.067 kPa
391.2 K, Liquid, Rate of evaporation	0.08 kPa
395.2 K, Liquid, Rate of evaporation	0.099 kPa
399.1 K, Liquid, Rate of evaporation	0.119 kPa
402.1 K, Liquid, Rate of evaporation	0.147 kPa
405 K, Liquid, Rate of evaporation	0.17 kPa
408 K, Liquid, Rate of evaporation	0.197 kPa
412 K, Liquid, Rate of evaporation	0.241 kPa
416 K, Liquid, Rate of evaporation	0.292 kPa
419.9 K, Liquid, Rate of evaporation	0.338 kPa
422.9 K, Liquid, Rate of evaporation	0.396 kPa
425.9 K, Liquid, Rate of evaporation	0.443 kPa
428.9 K, Liquid, Rate of evaporation	0.51 kPa
431.8 K, Liquid, Rate of evaporation	0.601 kPa

Settings	Triple point temperature [K]
[1], Crystal	382

Settings	Molar enthalpy of transition or fusion [kcal/mol]
[2]	4.9
